According to US20140081017A1, “Histone Deacetylase Inhibitors for Enhancing Activity of Antifungal Agents” (METHYLGENE INC., priority 2012, published 2014):
In brackets after ≈: the same amount, converted by molar mass. Like-named read-outs stand apart in the source and are kept apart here.

Legend:
[1] = tested on: Candida parapsilosis; assay: Minimal Inhibitory Concentration (MIC) assay, broth microdilution per CLSI; assay type: cell-based; details: for MIC: Lodderomyces parapsilosis, read-out: Minimum Inhibitory Concentrations against Yeast Isolates, Candida parapsilosis;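 on all read-outs here: two read times 24 hr and 48 hr of incubation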
Experimental: (§1) The in vitro activities of the inventive compounds (compound(s) herein) against fungi and/or yeasts were determined with isolates Candida albicans, Candida glabrata and Candida parapsilosis. The comparator compounds included fluconazole, caspofungin and amphotericin B.
(§2) The compounds were supplied as a powder, and were dissolved in dimethylsulfoxide (DMSO) the day of assay. Stock solutions were prepared at 10 mg/mL and diluted to a starting stock concentration of 2.56 mg/mL. Amphotericin B was dissolved in DMSO to a stock concentration of 2.56 mg/mL. Fluconazole was dissolved in deionized water to a stock concentration of 2.56 mg/mL. Caspofungin was received as a stock solution of 3.2 mg/mL in DMSO and was diluted to a starting stock concentration of 2.56 mg/mL.
(§3) The test organisms and reference isolates were streaked for isolation on Sabouraud agar medium (yeasts) or potato dextrose agar (fungi). Colonies were picked by swab from the medium and resuspended in the appropriate broth containing cryoprotectant. The suspensions were aliquoted into cryogenic vials and maintained at −80° C.
(§4) Prior to testing, the yeast isolates were streaked from the frozen vials onto Sabouraud dextrose agar. The plates were incubated overnight at 35° C. The fungal isolate was grown on potato dextrose agar slants and was incubated for 7-10 days at room temperature.
(§5) Both yeast and fungal isolates were tested in RPMI medium buffered with 0.165 M MOPS (3-(N-morpholino)propanesulfonic acid). The pH of the medium was adjusted to 7.0 with 1 N NaOH. The medium was sterile filtered using a 0.2 um PES (polyethersulfone) filter and stored at 4° C. until used.
(§6) The MIC assay method followed the procedure described by the Clinical and Laboratory Standards Institute (CLSI; 1, 2, 3) and employed automated liquid handlers to conduct serial dilutions and liquid transfers. Automated liquid handlers included the Multidrop 384 (Labsystems, Helsinki, Finland), Biomek 2000 and Biomek FX (Beckman Coulter, Fullerton Calif.). The wells in columns 2-12 in standard 96-well microdilution plates (Costar 3795) were filled with 150 ul of 100% DMSO. These would become the ‘mother plates’ from which ‘daughter’ or test plates would be prepared. The compounds (300 uL at 40× the desired top concentration in the test plates) were dispensed into the appropriate well in Column 1 of the mother plates. The Biomek 2000 was used to make serial 1:1 dilutions through Column 11 in the “mother plate”. The wells of Column 12 contained no compounds and were the organism growth control wells.
(§7) The daughter plates were loaded with 185 uL per well of RPMI described above using the Multidrop 384. The daughter plates were prepared using the Biomek FX which transferred 5 μL of the compound solution from each well of a mother plate to the corresponding well of the daughter plate in a single step.
(§8) Standardized inoculum of each organism was prepared per CLSI methods. For yeast isolates, colonies were picked from the streak plate and a suspension was prepared in 0.85% saline. For the fungal isolate, 1 mL of 0.85% saline was dispensed onto the potato dextrose agar slant that had been inoculated 7-10 days previously. Using a swab, a suspension of the fungus was made. After a short time to allow the heavy particles to settle out, a small quantity of the supernatant was dispensed into 0.85% saline and the suspension adjusted to equal a 0.5 McFarland turbidity standard. Both yeast and fungal isolates were diluted 1:100 in RPMI and then transferred to compartments of sterile reservoirs divided by length (Beckman Coulter). The Biomek 2000 was used to inoculate the plates. Daughter plates were placed on the Biomek 2000 work surface reversed so that inoculation took place from low to high compound concentration. The Biomek 2000 delivered 10 μL of standardized inoculum into each well. Thus, the wells of the daughter plates ultimately contained 185 uL of RPMI, 5 uL of the compound solution, and 10 uL of inoculum. […]

[2] = tested on: Candida glabrata; assay: as above; assay type: cell-based; details: for MIC: Nakaseomyces glabratus, read-out: Minimum Inhibitory Concentrations against Yeast Isolates, Candida glabrata;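 on all read-outs here: two read times 24 hr and 48 hr of incubation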
Experimental: as §1, §2, §3, §4, §5, §6, §7, §8

[3] = tested on: Candida albicans; assay: as above; assay type: cell-based; details: for MIC: Candida albicans, read-out: Minimum Inhibitory Concentrations against Yeast Isolates, Candida albicans;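 on all read-outs here: two read times 24 hr and 48 hr of incubation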
Experimental: as §1, §2, §3, §4, §5, §6, §7, §8

[4] = tested on: C. glabrata; assay: Checkerboard FIC assay in combination with fluconazole (MIC alone and in combination, FICI); assay type: cell-based, Candida glabrata; details: for FICI of combination resulting in fluconazole MIC of: 2 ug/mL / FICI of combination resulting in fluconazole MIC of: 4 ug/mL / FICI of combination resulting in fluconazole MIC of: 8 ug/mL: FICI calculated using a fluconazole MIC of 16 μg/mL; for FICI of combination resulting in fluconazole MIC of: 2 ug/mL (value in parenthesis) / FICI of combination resulting in fluconazole MIC of: 4 ug/mL (value in parenthesis) / FICI of combination resulting in fluconazole MIC of: 8 ug/mL (value in parenthesis): FICI using a fluconazole MIC of 128 μg/mL; for MIC: Nakaseomyces glabratus; for Multiple of compound MIC to synergize fluconazole MIC to 2 ug/mL / Multiple of compound MIC to synergize fluconazole MIC to 4 ug/mL / Multiple of compound MIC to synergize fluconazole MIC to 8 ug/mL: concentration in combination as multiple of the compound's MIC alone; for Multiple of compound MIC to synergize fluconazole MIC to 2 ug/mL: fluconazole MIC 2 ug/mL; for Multiple of compound MIC to synergize fluconazole MIC to 4 ug/mL: fluconazole MIC 4 ug/mL; for Multiple of compound MIC to synergize fluconazole MIC to 8 ug/mL: fluconazole MIC 8 ug/mL; for Concentration of Methylgene compound to synergize fluconazole MIC to 2 ug/mL / Concentration of Methylgene compound to synergize fluconazole MIC to 4 ug/mL / Concentration of Methylgene compound to synergize fluconazole MIC to 8 ug/mL: in combination with fluconazole; for Concentration of Methylgene compound to synergize fluconazole MIC to 2 ug/mL: fluconazole MIC lowered to 2 ug/mL; for Concentration of Methylgene compound to synergize fluconazole MIC to 4 ug/mL: fluconazole MIC lowered to 4 ug/mL; for Concentration of Methylgene compound to synergize fluconazole MIC to 8 ug/mL: fluconazole MIC lowered to 8 ug/mL
Experimental: The ability of the compounds to synergize with azoles against C. glabrata was evaluated by the checkerboard assay, a common laboratory method used to evaluate synergy, antagonism, and indifference using fractional inhibitory concentrations (FICs) and FIC indices (FICI).
The test compounds were supplied as a powder and dissolved in dimethylsulfoxide (DMSO) on the day of assay. Stock solutions were prepared at 640 ug/mL. Fluconazole was dissolved in deionized water to a stock concentration of 320 ug/mL. All test articles were in solution under these conditions.
as §3, §4, §5
FIC values were determined using a broth microdilution method (CLSI; 1, 3). To prepare the test plates, automated liquid handlers (Multidrop 384, Labsystems, Helsinki, Finland; Biomek 2000 and Biomek FX, Beckman Coulter, Fullerton Calif.) were used to conduct serial dilutions and liquid transfers.
The wells of standard 96-well microdilution plates (Costar 3795) were filled with 150 uL of DMSO in columns 2-12. Three hundred microliters of each test compound was added to each well in Column 1 of the plates. The Biomek 2000 was used to make eleven 2-fold serial dilutions in each of these “test compound mother” plates. The wells of the “fluconazole mother plates” were filled with 150 uL of sterile water in rows B-H. Row A of these plates was filled with 300 uL of the fluconazole stock solution. Serial 2-fold dilutions were then prepared from top to bottom by hand, using a multichannel pipette in rows B-G. The “daughter plates” were loaded with 180 uL of RPMI using the Multidrop 384. The Biomek FX was used to transfer 5 uL of compound solution from each well of a fluconazole mother plate to the corresponding well in all of the daughter plates in a single step. Then the Biomek FX was used to transfer 5 uL of compound solution from each well of a test compound mother plate to the corresponding well of the corresponding test compound daughter plate (already containing fluconazole at the appropriate concentrations) in a single step. Row H and Column 12 each contained serial dilutions of the test agent and fluconazole alone, respectively, for determination of the MIC.
Standardized inoculum of each organism was prepared per CLSI methods (CLSI; 1, 3). For yeast isolates, colonies were picked from the primary plate and a suspension was prepared in 0.85% saline to equal a 0.5 McFarland turbidity standard. For the fungal isolate, 1 mL of 0.85% saline was dispensed onto a potato dextrose agar slant onto which the isolate had been inoculated 7-10 days previously. Using a swab, a suspension of the fungus was made. After a short time to allow the heavy particles to settle out, a small quantity of the supernatant was dispensed into 0.85% saline and the suspension was adjusted to equal a 0.5 McFarland turbidity standard. Both yeast and fungal isolates were diluted 1:100 in RPMI and then transferred to compartments of sterile reservoirs divided by length (Beckman Coulter). The Biomek 2000 was used to inoculate the plates. […]

[5] = 24 hr reading (first value of cell 24 hr/48 hr)
[6] = 48 hr reading (second value of cell 24 hr/48 hr)
[7] = MIC of the example compound alone against C. glabrata in the checkerboard assay, approximately 48 hr, read-out: Methylgene MIC
[8] = test compound alone, C. glabrata, approx. 48 hr at 35° C., read-out: Compound MIC

| Compound | FICI of combination resulting in fluconazole MIC of: 2 ug/mL ([4]; C. glabrata) | FICI of combination resulting in fluconazole MIC of: 4 ug/mL ([4]; C. glabrata) | FICI of combination resulting in fluconazole MIC of: 8 ug/mL ([4]; C. glabrata) | FICI of combination resulting in fluconazole MIC of: 2 ug/mL (value in parenthesis) ([4]; C. glabrata) | FICI of combination resulting in fluconazole MIC of: 4 ug/mL (value in parenthesis) ([4]; C. glabrata) | FICI of combination resulting in fluconazole MIC of: 8 ug/mL (value in parenthesis) ([4]; C. glabrata) | MIC [4, 7] | MIC [4, 8] | Multiple of compound MIC to synergize fluconazole MIC to 2 ug/mL [4] | Multiple of compound MIC to synergize fluconazole MIC to 4 ug/mL [4] | Multiple of compound MIC to synergize fluconazole MIC to 8 ug/mL [4] | Concentration of Methylgene compound to synergize fluconazole MIC to 2 ug/mL ([4]; C. glabrata) | Concentration of Methylgene compound to synergize fluconazole MIC to 4 ug/mL ([4]; C. glabrata) | Concentration of Methylgene compound to synergize fluconazole MIC to 8 ug/mL ([4]; C. glabrata) | MIC [1, 5] | MIC [1, 6] | MIC [2, 5] | MIC [2, 6] | MIC [3, 5] | MIC [3, 6] | other results |
| --- | --- | --- | --- | --- | --- | --- | --- | --- | --- | --- | --- | --- | --- | --- | --- | --- | --- | --- | --- | --- | --- |
| C[C@@H]1[C@H](O)[C@@H](C)/C=C/C=C/C=C/C=C/C=C/C=C/C=C/[C@H](O[C@@H]2O[C@H](C)[C@@H](O)[C@H](N)[C@@H]2O)C[C@@H]2O[C@](O)(C[C@@H](O)C[C@@H](O)[C@H](O)CC[C@@H](O)C[C@@H](O)CC(=O)O[C@H]1C)C[C@H](O)[C@H]2C(=O)O [Amphotericin B, reference compound] |  |  |  |  |  |  |  |  |  |  |  |  |  |  |  |  |  |  |  |  | Minimum Inhibitory Concentrations against Yeast Isolates, Candida parapsilosis [1, 5]: 0.25 µg/mL; Minimum Inhibitory Concentrations against Yeast Isolates, Candida parapsilosis [1, 6]: 0.5 µg/mL; Minimum Inhibitory Concentrations against Yeast Isolates, Candida glabrata [2, 5]: < 0.06 µg/mL; Minimum Inhibitory Concentrations against Yeast Isolates, Candida glabrata [2, 6]: 0.5 µg/mL; Minimum Inhibitory Concentrations against Yeast Isolates, Candida albicans [3, 5]: < 0.06 µg/mL; Minimum Inhibitory Concentrations against Yeast Isolates, Candida albicans [3, 6]: 0.25 µg/mL |
| O=C(Cc1csc(CCCCc2ccccc2)n1)NO [Example 1, N-hydroxy-2-(2-(4-phenylbutyl)thiazol-4-yl)acetamide] | 0.625 | 0.500 | 0.625 | 0.516 | 0.281 | 0.188 | 8 mg/L | 8 mg/L | (½x) | (¼x) | (⅛x) | 4 mg/L | 2 mg/L | 1 mg/L | 32 mg/L (≈ 110 µM) | 32 mg/L (≈ 110 µM) | > 64 mg/L | > 64 mg/L | 32 mg/L (≈ 110 µM) | 32 mg/L (≈ 110 µM) |  |
| O=C(Cc1cnc(CCCCc2ccccc2)s1)NO [Example 2, N-hydroxy-2-(2-(4-phenylbutyl)thiazol-5-yl)acetamide] | 0.375 | 0.500 | 0.625 | 0.266 | 0.281 | 0.188 | 16 mg/L | 16 mg/L | (¼x) | (¼x) | (⅛x) | 4 mg/L | 4 mg/L | 2 mg/L | 64 mg/L (≈ 220 µM) | 64 mg/L (≈ 220 µM) | > 64 mg/L | > 64 mg/L | 64 mg/L (≈ 220 µM) | 64 mg/L (≈ 220 µM) |  |
| CN(C)CCCOc1ccc(CCCCc2ccc(CC(=O)NO)cc2)cc1 [Example 17, 2-(4-(4-(4-(3-(dimethylamino)propoxy)phenyl)butyl)phe-nyl)-N-hydroxyacetamide] |  |  |  |  |  |  |  |  |  |  |  |  |  |  | > 64 mg/L | > 64 mg/L | > 64 mg/L | > 64 mg/L | > 64 mg/L | > 64 mg/L |  |
| O=C(Cc1ccc(CCCCc2ccc(OCCN3CCCC3)cc2)cc1)NO [Example 18, N-hydroxy-2-(4-(4-(4-(2-(pyrrolidin-1-yl)ethoxy)phenyl)butyl)phenyl)acetamide] |  |  |  |  |  |  |  |  |  |  |  |  |  |  | > 64 mg/L | > 64 mg/L | > 64 mg/L | > 64 mg/L | > 64 mg/L | > 64 mg/L |  |
| O=C(Cc1ccc(CCCCc2ccccc2)o1)NO [Example 62, N-hydroxy-2-(5-(4-phenylbutyl)furan-2-yl)acetamide] |  |  |  |  |  |  |  |  |  |  |  |  |  |  | 32 mg/L (≈ 117 µM) | 32 mg/L (≈ 117 µM) | 32 mg/L (≈ 117 µM) | 32 mg/L (≈ 117 µM) | 32 mg/L (≈ 117 µM) | 32 mg/L (≈ 117 µM) |  |
